The results in this text go back to patent publication US9796679B2, “Type 4 prepilin peptidase inhibitors and methods of use” (priority 2014, dated 2017).

The experiment deals with T1, TcpJ (Vibrio cholerae serotype O1, UniProt A5F385).
T1 construct: made in house; host or cells: E. coli JM109 carrying pCL9 (total membrane fraction)
T1 sequence (A5F385 1-253): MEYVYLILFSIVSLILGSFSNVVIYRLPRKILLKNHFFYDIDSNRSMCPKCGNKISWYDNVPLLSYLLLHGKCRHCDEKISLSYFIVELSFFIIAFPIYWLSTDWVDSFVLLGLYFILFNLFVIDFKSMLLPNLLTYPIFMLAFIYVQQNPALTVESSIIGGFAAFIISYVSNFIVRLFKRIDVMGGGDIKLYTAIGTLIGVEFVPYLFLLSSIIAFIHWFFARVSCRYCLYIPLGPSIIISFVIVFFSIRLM
The experiment is described as follows: In vitro TcpA prepilin cleavage assay with inhibitors. As to conditions: compared to compounds where R is methyl. The format is biochemical. How it is done: By way of illustration, the effect of inhibitors on the peptidase activity of TcpJ can be determined by incubating the inhibitor with an amount of membrane preparation known to contain 1 unit of activity of TcpJ for 30 minutes at room temperature. The TcpJ/inhibitor mixture is then tested for peptidase activity. Amounts of cleaved TcpA prepilin can be quantitated and applied to the formula: % cleavage=(amount of cleaved TcpA in inhibition assay/amount of cleaved TcpA in no inhibitor control assay)×100.
Membrane preparations were prepared according to a modified cell fractionation protocol (Pfau (1998) J. Bact. 180(17):4724-33). Overnight cultures were placed on ice for 20 minutes then pelleted at 5000×g for 10 minutes. The cell pellet was resuspended in 1 ml 200 mM Tris pH 8.0 to which 1 ml 50 mM Tris pH 8.0, 1 M sucrose, 2 ml water, 20 μl 0.5 M EDTA, and 20 μl lysozyme (10 mg/ml) were added. The cell suspension was allowed to incubate on ice for 30 minutes. Then, 100 μl 1 M MgSO4 was added and the suspension was pelleted at 5000×g for 10 minutes. […]
A membrane preparation from the E. coli strain K38 p3Z-A, pGP1-2, which was determined to contain 0.2 μg TcpA prepilin/μl, was the source of prepilin in the in vitro TcpJ proteases assay instead of purified prepilin. […]

`Nc1cc[n+](Cc2ccc(-c3ccc(C[n+]4ccc(N)c5ccccc54)cc3)cc2)c2ccccc12` [TC-7]: the IC50 value entry was “lower IC50 value compared to compounds where R is methyl”.
